Experimental findings from patent US8598344B2, “CDKI pathway inhibitors and uses thereof” (Senex Biotechnology, priority 2009, dated 2013) are described below.

As usually defined, the Kd is the concentration at which binding is half-saturated.

SMILES strings stand for the structures.

The target of the first assay is T1, CDK19 (Homo sapiens, UniProt Q9BWU1).
T1 construct: purchased KinomeScan, a division of Ambit Biosciences
T1 sequence (Q9BWU1 whole entry): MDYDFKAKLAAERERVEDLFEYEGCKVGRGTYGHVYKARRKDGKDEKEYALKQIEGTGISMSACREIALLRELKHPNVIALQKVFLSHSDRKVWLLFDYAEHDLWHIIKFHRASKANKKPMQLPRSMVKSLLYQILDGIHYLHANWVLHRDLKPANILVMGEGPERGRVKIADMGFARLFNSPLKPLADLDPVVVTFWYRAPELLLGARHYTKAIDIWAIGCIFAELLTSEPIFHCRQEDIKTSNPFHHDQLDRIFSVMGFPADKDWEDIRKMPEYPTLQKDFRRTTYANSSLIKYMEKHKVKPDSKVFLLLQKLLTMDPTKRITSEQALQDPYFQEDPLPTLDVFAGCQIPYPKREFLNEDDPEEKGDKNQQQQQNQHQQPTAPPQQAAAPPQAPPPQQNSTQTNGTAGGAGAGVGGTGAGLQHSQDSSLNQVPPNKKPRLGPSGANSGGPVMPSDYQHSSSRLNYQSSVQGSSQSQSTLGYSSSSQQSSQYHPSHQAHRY
In words: KinomeScan competition binding assay. To be noted: 10 μM. The source says:
(§1) This similarity led us to test SNX14 for the ability to inhibit 285 kinases, using the services of KinaseProfiler of Millipore Corporation (285 kinases). […] The KINOMEscan assay has been described in detail in Fabian et al., Nat. Biotechnol. 23: 329 (2005) and Karaman et al., Nat. Biotechnol. 26: 127 (2008).
(§2) The KinomeScan assay is based on a competition binding assay that quantitatively measures the ability of a compound to compete with an immobilized, ATP site directed ligand. The assay is performed by combining three components: DNA-tagged kinase; immobilized ligand; and a test compound. The ability of the test compound to compete with the immobilized ligand is measured via quantitative PCR of the DNA tag. […] The CDKs tested by Millipore for inhibition with SNX14 included CDK1, CDK2, CDK3, CDK5, CDK7 and CDK9; none of these were inhibited to less than 49 percent of control (POC) activity. The CDKs tested by KinomeScan for the effect of Compound 1 included CDK2, CDK3, CDK4, CDK5, CDK7, CDK8, CDK9 and CDK19; aside from CDK8 and CDK19, the strongest inhibited CDK was CDK7 (33% POC binding). To determine the inhibition of which kinases correlates with the biological activity of SNX2-class compounds, we tested eight additional compounds of the SNX2 family, which gave different IC50 values in the cellular assays, for the ability to affect 24 kinases that were most susceptible to compound 1, through the services of KinomeScan. […] We have also determined the binding constant (Kd) for SNX14, compound 1, compound 20, compound 26, compound 43 and compound 14 in kinase assays for CDK8 and CDK19 (Table 1).
Consider `N#Cc1ccc2ncnc(NCCc3ccccc3)c2c1` [compound 1], for which the “inhibition of CDK19” value was greater than 99%.
Still for that read-out and setting: the figure for `N#Cc1ccc2ncnc(NCCc3ccc4ccccc4c3)c2c1` [compound 26] is 94.6%.

The assay is the same for the next values; noted with them: 10 μM compound.
Turning to `N#Cc1ccc2ncnc(NCCc3ccccc3)c2c1` [compound 1], the “POC ligand binding, CDK19” value is 0.05 POC.
Still for that read-out and setting: in the case of `N#Cc1ccc2ncnc(NCc3ccc(Cl)cc3)c2c1` [compound 20] it was 0 POC; in that of `COc1ccc2ncnc(NCCc3ccccc3)c2c1` [compound 44], 9.2 POC; in that of `N#Cc1ccc2ncnc(NCCc3ccc4ccccc4c3)c2c1` [compound 26], 5.6 POC.
`CC(C)CNc1ncnc2ccc(C(F)(F)F)cc12` [compound 45]: the “POC ligand binding, CDK19” value was found to be 21 POC.
On the same count and under the same terms, in the case of `CCCNc1ncnc2ccc(N3CCOCC3)cc12` [compound 46] it was 100 POC.

Staying with this assay, now noted: 10 μM compound; 10 µM.
As to `N#Cc1ccc2ncnc(NCc3ccc4ccccc4c3)c2c1` [compound 43], the “POC ligand binding, CDK19” value is 0.25 POC.
Turning to `N#Cc1ccc2ncnc(NCc3ccc4ccccc4c3)c2c1` [compound 14], the “POC ligand binding, CDK19” value was 0.1 POC.

The assay is the same for the next values; noted with them: read-out: CDK19 inhibition (Kd).
Consider `N#Cc1ccc2ncnc(NCCc3ccccc3)c2c1` [compound 1], for which the Kd was determined as 310 nM.
For `N#Cc1ccc2ncnc(NCc3ccc(Cl)cc3)c2c1` [compound 20], the equilibrium dissociation constant (Kd) is 99 nM.
Still for that read-out and setting: in the case of `N#Cc1ccc2ncnc(NCCc3ccc4ccccc4c3)c2c1` [compound 26] it was 160 nM; in that of `N#Cc1ccc2ncnc(NCc3ccc4ccccc4c3)c2c1` [compound 43], 190 nM.
Still for that read-out and setting: in the case of `N#Cc1ccc2ncnc(NCc3ccc4ccccc4c3)c2c1` [compound 14] it was 1100 nM.

In the next assay the target is T2, YSK4 (Homo sapiens, UniProt Q56UN5).
T2 construct: purchased KinomeScan, a division of Ambit Biosciences
T2 sequence (Q56UN5 1-1328): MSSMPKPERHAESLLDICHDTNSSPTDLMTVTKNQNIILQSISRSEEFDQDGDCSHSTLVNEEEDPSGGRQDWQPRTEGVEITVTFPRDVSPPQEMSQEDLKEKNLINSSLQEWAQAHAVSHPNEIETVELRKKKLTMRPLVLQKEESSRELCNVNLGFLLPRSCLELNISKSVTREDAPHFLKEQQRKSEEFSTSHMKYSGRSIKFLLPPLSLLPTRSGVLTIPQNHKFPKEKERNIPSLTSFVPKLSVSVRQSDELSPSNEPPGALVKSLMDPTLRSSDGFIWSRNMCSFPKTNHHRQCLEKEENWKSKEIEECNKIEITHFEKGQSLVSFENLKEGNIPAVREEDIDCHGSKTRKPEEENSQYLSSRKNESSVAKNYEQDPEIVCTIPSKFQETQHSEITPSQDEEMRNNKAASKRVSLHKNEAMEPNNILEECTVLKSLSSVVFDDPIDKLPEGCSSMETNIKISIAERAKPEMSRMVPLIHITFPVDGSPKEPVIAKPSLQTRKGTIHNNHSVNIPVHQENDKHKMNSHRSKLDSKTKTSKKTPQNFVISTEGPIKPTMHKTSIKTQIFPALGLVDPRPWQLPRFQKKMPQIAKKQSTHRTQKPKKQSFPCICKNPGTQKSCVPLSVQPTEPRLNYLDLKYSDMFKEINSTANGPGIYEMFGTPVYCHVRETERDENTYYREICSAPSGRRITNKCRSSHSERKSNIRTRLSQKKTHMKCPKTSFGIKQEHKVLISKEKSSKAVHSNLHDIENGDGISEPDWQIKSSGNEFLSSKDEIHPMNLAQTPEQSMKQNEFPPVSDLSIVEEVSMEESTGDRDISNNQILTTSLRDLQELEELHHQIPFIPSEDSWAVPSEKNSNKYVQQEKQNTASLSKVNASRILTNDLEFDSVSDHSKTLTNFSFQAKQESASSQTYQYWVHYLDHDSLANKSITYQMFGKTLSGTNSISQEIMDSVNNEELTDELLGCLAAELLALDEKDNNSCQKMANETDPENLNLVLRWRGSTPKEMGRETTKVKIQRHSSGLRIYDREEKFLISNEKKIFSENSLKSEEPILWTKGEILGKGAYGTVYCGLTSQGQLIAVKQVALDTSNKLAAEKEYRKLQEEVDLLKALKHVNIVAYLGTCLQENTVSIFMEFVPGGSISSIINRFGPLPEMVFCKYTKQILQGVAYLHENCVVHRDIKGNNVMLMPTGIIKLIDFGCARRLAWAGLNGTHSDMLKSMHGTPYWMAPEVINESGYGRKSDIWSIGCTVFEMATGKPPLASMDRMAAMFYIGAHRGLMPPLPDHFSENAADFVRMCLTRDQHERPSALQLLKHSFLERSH
The experiment in a line: KinomeScan competition binding assay. The settings on record: 10 μM compound.
From the text: as §1, §2
Turning to `N#Cc1ccc2ncnc(NCCc3ccccc3)c2c1` [compound 1], the “POC ligand binding, YSK4” value is listed as 5.4 POC.
The same measure, in the same setting: in the case of `N#Cc1ccc2ncnc(NCc3ccc(Cl)cc3)c2c1` [compound 20] it was 31 POC; in that of `COc1ccc2ncnc(NCCc3ccccc3)c2c1` [compound 44], 39 POC; in that of `N#Cc1ccc2ncnc(NCCc3ccc4ccccc4c3)c2c1` [compound 26], 44 POC.
Same read-out and setting: in the case of `CC(C)CNc1ncnc2ccc(C(F)(F)F)cc12` [compound 45] it was 41 POC.
For `CCCNc1ncnc2ccc(N3CCOCC3)cc12` [compound 46], the “POC ligand binding, YSK4” value came out at 91 POC.

Staying with this assay, now noted: 10 μM compound; 10 µM.
For `N#Cc1ccc2ncnc(NCc3ccc4ccccc4c3)c2c1` [compound 43], the “POC ligand binding, YSK4” value worked out at 29 POC.
On to `N#Cc1ccc2ncnc(NCc3ccc4ccccc4c3)c2c1` [compound 14], for which the “POC ligand binding, YSK4” value amounted to 21 POC.

The next assay deals with T3, FLT3 (D835Y) (Homo sapiens, UniProt P36888, D835Y).
T3 construct: purchased KinomeScan, a division of Ambit Biosciences
T3 sequence (P36888 27-993 D835Y): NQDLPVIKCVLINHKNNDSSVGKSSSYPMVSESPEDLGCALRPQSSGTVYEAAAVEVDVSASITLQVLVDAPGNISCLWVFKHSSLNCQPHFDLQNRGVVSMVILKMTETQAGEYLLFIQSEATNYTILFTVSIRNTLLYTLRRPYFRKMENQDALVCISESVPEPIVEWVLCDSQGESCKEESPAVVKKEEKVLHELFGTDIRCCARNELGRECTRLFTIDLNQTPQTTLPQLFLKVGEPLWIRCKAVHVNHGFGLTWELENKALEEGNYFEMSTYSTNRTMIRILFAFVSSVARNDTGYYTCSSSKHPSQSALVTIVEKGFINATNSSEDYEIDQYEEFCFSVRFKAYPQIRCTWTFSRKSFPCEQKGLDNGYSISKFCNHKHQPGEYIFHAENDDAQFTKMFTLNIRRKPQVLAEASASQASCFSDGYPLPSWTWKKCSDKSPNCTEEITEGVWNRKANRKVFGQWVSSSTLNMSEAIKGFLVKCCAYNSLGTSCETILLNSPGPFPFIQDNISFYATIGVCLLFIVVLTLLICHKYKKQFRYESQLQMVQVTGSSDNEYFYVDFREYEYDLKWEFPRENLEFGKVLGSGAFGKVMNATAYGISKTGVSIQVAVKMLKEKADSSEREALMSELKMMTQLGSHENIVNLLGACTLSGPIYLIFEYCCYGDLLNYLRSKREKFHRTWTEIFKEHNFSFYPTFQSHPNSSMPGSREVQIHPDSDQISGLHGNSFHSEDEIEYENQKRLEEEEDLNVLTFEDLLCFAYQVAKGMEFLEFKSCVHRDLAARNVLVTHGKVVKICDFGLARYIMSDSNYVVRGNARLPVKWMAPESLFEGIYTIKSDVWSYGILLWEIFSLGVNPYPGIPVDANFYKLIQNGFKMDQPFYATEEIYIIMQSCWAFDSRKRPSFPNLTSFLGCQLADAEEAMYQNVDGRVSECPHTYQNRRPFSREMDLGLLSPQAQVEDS
In words: KinomeScan competition binding assay. The settings on record: 10 μM compound.
From the text: as §1, §2
For `N#Cc1ccc2ncnc(NCCc3ccccc3)c2c1` [compound 1], the “POC ligand binding, FLT3 (D835Y)” value was found to be 19 POC.
Take `N#Cc1ccc2ncnc(NCc3ccc(Cl)cc3)c2c1` [compound 20]: the “POC ligand binding, FLT3 (D835Y)” value stood at 69 POC.
As for `COc1ccc2ncnc(NCCc3ccccc3)c2c1` [compound 44], the “POC ligand binding, FLT3 (D835Y)” value is recorded as 55 POC.
On the same count and under the same terms, in the case of `N#Cc1ccc2ncnc(NCCc3ccc4ccccc4c3)c2c1` [compound 26] it was 55 POC.
With `CC(C)CNc1ncnc2ccc(C(F)(F)F)cc12` [compound 45], the “POC ligand binding, FLT3 (D835Y)” value is listed as 4.7 POC.
On to `CCCNc1ncnc2ccc(N3CCOCC3)cc12` [compound 46], for which the “POC ligand binding, FLT3 (D835Y)” value was 19 POC.

The same assay, now with this note: 10 μM compound; 10 µM.
On to `N#Cc1ccc2ncnc(NCc3ccc4ccccc4c3)c2c1` [compound 43], for which the “POC ligand binding, FLT3 (D835Y)” value worked out at 76 POC.
Regarding `N#Cc1ccc2ncnc(NCc3ccc4ccccc4c3)c2c1` [compound 14], the “POC ligand binding, FLT3 (D835Y)” value stood at 32 POC.
